Assay results reported in publication PMC8453635, “Piperidine Azasugars Bearing Lipophilic Chains: Stereoselective Synthesis and Biological Activity as Inhibitors of Glucocerebrosidase (GCase)” (The Journal of Organic Chemistry, 2021).
Entries after “also recorded” stand apart in the source; their conditions may differ.

Columns and labels:
[1] = tested on: α-L-fucosidase EC 3.2.1.51; assay: Commercial glycosidase screening; assay type: biochemical; settings: Homo sapiens
Method: (§1) Preliminary biological evaluation of compounds 14 and 15 (at 100 μM inhibitor concentration) was performed toward a panel of 12 commercial glycosidases (α-L-fucosidase EC 3.2.1.51 from Homo sapiens, α-galactosidase EC 3.2.1.22 from coffee beans, β-galactosidases EC 3.2.1.23 from Escherichia coli and Aspergillus oryzae, α-glucosidases EC 3.2.1.20 from yeast and rice, amyloglucosidase EC 3.2.1.3 from Aspergillus niger, β-glucosidase EC 3.2.1.21 from almonds, α-mannosidase EC 3.2.1.24 from Jack beans, β-mannosidase EC 3.2.1.25 from snail, and β-N-acetylglucosaminidases EC 3.2.1.52 from Jack beans and bovine kidney).
(§2) The percentage (%) of inhibition for compounds 14 and 15 toward the corresponding glycosidase was determined by quadruplicate in the presence of 100 μM of the inhibitor on the well. Each enzymatic assay (final volume 0.12 mL) contains 0.01–0.5 units/mL of the enzyme (with previous calibration) and 4.2 mM aqueous solution of the appropriate p-nitrophenyl glycopyranoside (substrate) buffered to the optimal pH of the enzyme. Enzyme and inhibitor were pre-incubated for 5 min at rt, and the reaction started by addition of the substrate. After 20 min of incubation at 37 °C, the reaction was stopped by addition of 0.1 mL of sodium borate solution (pH 9.8). The p-nitrophenolate formed was measured by visible absorption spectroscopy at 405 nm (Asys Expert 96 spectrophotometer). Under these conditions, the p-nitrophenolate released led to optical densities linear with both reaction time and concentration of the enzyme.
(§3) Biological screening towards commercial glycosidases
(§4) α-L-fucosidase EC 3.2.1.51
(§5) α-galactosidase EC 3.2.1.22 […]
(§6) β-glucosidase EC 3.2.1.21
(§7) α-mannosidase EC 3.2.1.24
(§8) β-mannosidase EC 3.2.1.25 […]
(§9) “-“: no inhibition (or less than 15%) detected.

[2] = tested on: β-mannosidase EC 3.2.1.25; assay: Commercial glycosidase screening; assay type: biochemical; settings: snail
Method: as §1, §2, §3, §4, §5, §6, §7, §8, §9

[3] = target: T1, amyloglucosidase EC 3.2.1.3 (Aspergillus niger, UniProt P69328); assay: Commercial glycosidase screening; assay type: biochemical; settings: read-out: % Inhibition at 0.1 mM
T1 construct: purchased
T1 sequence (P69328 25-640): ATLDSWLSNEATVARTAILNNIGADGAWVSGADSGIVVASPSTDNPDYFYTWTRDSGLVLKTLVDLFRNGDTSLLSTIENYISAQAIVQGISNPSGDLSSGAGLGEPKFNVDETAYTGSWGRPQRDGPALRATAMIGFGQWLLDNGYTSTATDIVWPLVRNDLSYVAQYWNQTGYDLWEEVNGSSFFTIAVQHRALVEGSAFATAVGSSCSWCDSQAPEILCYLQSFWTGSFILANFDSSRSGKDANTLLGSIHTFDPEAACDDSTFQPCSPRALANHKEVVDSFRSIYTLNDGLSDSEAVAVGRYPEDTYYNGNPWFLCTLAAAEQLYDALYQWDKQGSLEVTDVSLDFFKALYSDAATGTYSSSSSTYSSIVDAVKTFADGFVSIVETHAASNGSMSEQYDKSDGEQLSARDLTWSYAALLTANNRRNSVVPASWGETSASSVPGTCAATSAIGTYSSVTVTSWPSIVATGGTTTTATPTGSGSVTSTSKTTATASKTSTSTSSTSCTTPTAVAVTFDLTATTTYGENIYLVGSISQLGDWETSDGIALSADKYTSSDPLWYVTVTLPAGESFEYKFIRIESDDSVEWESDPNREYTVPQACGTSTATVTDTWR
Method: as §1, §2, §3, §4, §5, §6, §7, §8, §9

[4] = tested on: β-glucosidase EC 3.2.1.21; assay: Commercial glycosidase screening; assay type: biochemical; settings: almonds
Method: as §1, §2, §3, §4, §5, §6, §7, §8, §9

[5] = target: T2, α-mannosidase EC 3.2.1.24 (Canavalia ensiformis, UniProt C0HJB3); assay: Commercial glycosidase screening; assay type: biochemical; settings: Jack beans, read-out: % Inhibition at 0.1 mM
T2 construct: purchased
T2 sequence (C0HJB3 whole entry): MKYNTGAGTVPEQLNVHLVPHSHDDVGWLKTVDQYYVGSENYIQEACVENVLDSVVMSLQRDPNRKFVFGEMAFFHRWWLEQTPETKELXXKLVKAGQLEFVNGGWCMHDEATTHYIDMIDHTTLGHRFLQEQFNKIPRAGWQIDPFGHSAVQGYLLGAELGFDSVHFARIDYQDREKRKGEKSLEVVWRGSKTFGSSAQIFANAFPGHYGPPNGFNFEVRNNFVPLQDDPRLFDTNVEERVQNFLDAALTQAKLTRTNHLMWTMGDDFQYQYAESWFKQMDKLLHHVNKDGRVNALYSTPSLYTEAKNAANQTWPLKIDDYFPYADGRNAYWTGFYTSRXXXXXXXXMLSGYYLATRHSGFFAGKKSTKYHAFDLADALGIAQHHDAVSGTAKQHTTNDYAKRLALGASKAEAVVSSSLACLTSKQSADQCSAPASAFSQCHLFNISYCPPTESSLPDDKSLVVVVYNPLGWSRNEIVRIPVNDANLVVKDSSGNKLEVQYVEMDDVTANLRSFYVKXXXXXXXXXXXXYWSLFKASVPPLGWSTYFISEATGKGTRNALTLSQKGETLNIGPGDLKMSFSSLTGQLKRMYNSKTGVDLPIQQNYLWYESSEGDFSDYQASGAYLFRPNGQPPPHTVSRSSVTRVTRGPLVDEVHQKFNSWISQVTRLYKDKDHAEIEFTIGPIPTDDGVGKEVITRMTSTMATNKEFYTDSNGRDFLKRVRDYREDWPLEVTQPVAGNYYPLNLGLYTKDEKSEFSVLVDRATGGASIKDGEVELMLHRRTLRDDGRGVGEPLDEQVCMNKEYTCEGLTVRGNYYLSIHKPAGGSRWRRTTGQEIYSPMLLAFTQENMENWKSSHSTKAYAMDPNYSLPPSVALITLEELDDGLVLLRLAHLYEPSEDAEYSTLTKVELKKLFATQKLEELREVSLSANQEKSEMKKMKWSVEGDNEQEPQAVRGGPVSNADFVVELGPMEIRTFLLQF
Method: as §1, §2, §3, §4, §5, §6, §7, §8, §9

[6] = target: T3, α-galactosidase EC 3.2.1.22 (Coffea arabica, UniProt Q42656); assay: Commercial glycosidase screening; assay type: biochemical; settings: coffee beans, read-out: % Inhibition at 0.1 mM
T3 construct: purchased
T3 sequence (Q42656 16-378): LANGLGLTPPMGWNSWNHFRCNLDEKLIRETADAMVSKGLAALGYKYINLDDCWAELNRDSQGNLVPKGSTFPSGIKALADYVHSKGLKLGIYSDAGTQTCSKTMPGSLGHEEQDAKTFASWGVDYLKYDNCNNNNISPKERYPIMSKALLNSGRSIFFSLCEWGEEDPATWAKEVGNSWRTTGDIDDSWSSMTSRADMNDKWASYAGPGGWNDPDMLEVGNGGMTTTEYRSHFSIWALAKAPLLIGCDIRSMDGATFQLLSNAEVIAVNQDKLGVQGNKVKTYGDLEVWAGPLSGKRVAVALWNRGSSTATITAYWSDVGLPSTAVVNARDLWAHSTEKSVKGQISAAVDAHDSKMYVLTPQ
Method: as §1, §2, §3, §4, §5, §6, §7, §8, §9

[7] = target: T4, GCase in fibroblasts bearing the N370S/RecNcil mutation (Homo sapiens, UniProt P04062, A495P/L483P/N409S); assay: Pharmacological chaperoning activity in N370S/RecNcil Gaucher fibroblasts; assay type: cell-based; settings: for cell viability: 50 µM and 100 µM, 4 days; for GCase enzymatic activity rescue: 4 days incubation
T4 construct: fibroblasts derived from Gaucher patients bearing the N370S/RecNcil and L444P/L444P mutations; host or cells: fibroblasts from Gaucher disease patients, N370S/RecNcil
T4 sequence (P04062 40-536 N409S): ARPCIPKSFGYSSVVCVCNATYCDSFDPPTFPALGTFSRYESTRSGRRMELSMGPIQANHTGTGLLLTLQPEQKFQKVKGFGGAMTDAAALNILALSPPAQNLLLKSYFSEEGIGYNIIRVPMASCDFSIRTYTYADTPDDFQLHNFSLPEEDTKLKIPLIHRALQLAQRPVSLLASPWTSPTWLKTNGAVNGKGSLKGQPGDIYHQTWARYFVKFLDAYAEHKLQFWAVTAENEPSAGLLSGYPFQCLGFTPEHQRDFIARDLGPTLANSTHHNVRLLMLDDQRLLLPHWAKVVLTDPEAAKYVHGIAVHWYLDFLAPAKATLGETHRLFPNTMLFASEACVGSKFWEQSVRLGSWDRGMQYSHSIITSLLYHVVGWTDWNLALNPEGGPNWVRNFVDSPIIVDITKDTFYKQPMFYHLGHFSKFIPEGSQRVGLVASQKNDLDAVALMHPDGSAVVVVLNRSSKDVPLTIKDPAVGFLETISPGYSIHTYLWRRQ
Method: The ability of compounds 14 and 15 to enhance the activity of GCase after incubation (4 days) with fibroblasts bearing the selected mutations was evaluated. The experiments were performed using fibroblasts derived from Gaucher patients bearing the N370S/RecNcil and L444P/L444P mutations (see the Supporting Information section).
Fibroblasts with the N370S/RecNcil (or L444P/L444P) mutation from Gaucher disease patients were obtained from the “Cell line and DNA Biobank from patients affected by Genetic Diseases” (Gaslini Hospital, Genova, Italy). Fibroblast cells (15.0 × 10^4) were seeded in T25 flasks with DMEM supplemented with fetal bovine serum (10%), penicillin/streptomycin (1%), and glutamine (1%) and incubated at 37 °C with 5% CO2 for 24 h. The medium was removed, and fresh medium containing the compounds (14, 15 and 33·HCl) was added to the cells and incubated for 4 days. The medium was removed, and the cells were washed with PBS and detached with trypsin to obtain cell pellets, which were washed four times with PBS, frozen, and lysed by sonication in water. Enzyme activity was measured as reported above. Reported data are mean S.D. (n = 2).
Pharmacological chaperoning activity
Figure S50. Fibroblasts derived from GD patients bearing N370S/RecNcil mutations were incubated without (control, ctrl) or with 7 different concentrations (10 nM, 50 nM, 100 nM, 1 μM, 10 μM, 50 μM, 100 μM) of compounds 14 and 15. After 4 days, the flasks containing cells incubated with 50 µM and 100 µM […]
other concentrations, the GCase activity was determined in lysates from treated fibroblasts. Reported data are mean S.D. (n=2).
(also on this page, place not known: beta glucosidase activity (nmol/mg/h) beta glucosidase activity (nmol/mg/h)) […]
Figure S51. Fibroblasts derived from GD patients bearing N370S/RecNcil mutations were incubated without (control, ctrl) or with […] different concentrations (5 nM, 10 nM, 100 nM, 1 μM, 10 μM, 30 μM) of compound 33.HCl. After 4 days, the GCase activity was determined in lysates from treated fibroblasts. Reported […]
(also on this page, place not known: beta glucosidase activity (nmol/mg/h))

| Compound | % Inhibition at 0.1 mM [1] | % Inhibition at 0.1 mM [2] | inhibition at 100 µM [3] | % Inhibition at 0.1 mM [4] | inhibition at 100 µM [5] | inhibition at 100 µM [6] | cell viability [7] | GCase enzymatic activity rescue ([7]; 5 nM to 10 μM) | GCase enzymatic activity rescue ([7]; 5 nM to 30 μM) |
| --- | --- | --- | --- | --- | --- | --- | --- | --- | --- |
| CCCCCCCC[C@H]1[C@@H](O)[C@H](O)[C@H](O)CN1CCCCCCCC [compound 14, (2S,3R,4R,5R)-1,2-Dioctylpiperidine-3,4,5-triol] | - (“-“: no inhibition (or less than 15%) detected.) | - (“-“: no inhibition (or less than 15%) detected.) | < 15% | 30% | < 15% | < 15% | low cell viability | no enzymatic activity rescue; also recorded: no GCase activity enhancements |  |
| CCCCCCCC[C@@H]1[C@@H](O)[C@H](O)[C@H](O)CN1CCCCCCCC [compound 15, (2R,3R,4R,5R)-1,2-Dioctylpiperidine-3,4,5-triol] | - (“-“: no inhibition (or less than 15%) detected.) | - (“-“: no inhibition (or less than 15%) detected.) | < 15% | - (“-“: no inhibition (or less than 15%) detected.) | < 15% | < 15% | low cell viability | no enzymatic activity rescue; also recorded: no GCase activity enhancements |  |
| CCCCCCCC[C@@H]1[C@@H](O)[C@H](O)[C@H](O)CN1C(CCCCCCC)CCCCCCC.Cl [compound 33·HCl, (2R,3R,4R,5R)-2-Octyl-1-(pentadecan-8-yl)-piperidine-3,4,5-triol Hydrochloride] |  |  |  |  |  |  |  |  | no enzymatic activity rescue; also recorded: no GCase activity enhancements |
